Laboratory results as given in publication PMC3210473 (Biotechnology and bioengineering, 2011).

What was measured:
sensor 6 (ERα 312-595) [1] = molecular target: T1, sensor 6 (ERα 312-595) (Homo sapiens, UniProt P03372); assay: split mVenus complementation, flow cytometry; type: cell-based; conditions: transfected HeLa cells, up to […] ligand, […] h
T1 sequence (P03372 312-595): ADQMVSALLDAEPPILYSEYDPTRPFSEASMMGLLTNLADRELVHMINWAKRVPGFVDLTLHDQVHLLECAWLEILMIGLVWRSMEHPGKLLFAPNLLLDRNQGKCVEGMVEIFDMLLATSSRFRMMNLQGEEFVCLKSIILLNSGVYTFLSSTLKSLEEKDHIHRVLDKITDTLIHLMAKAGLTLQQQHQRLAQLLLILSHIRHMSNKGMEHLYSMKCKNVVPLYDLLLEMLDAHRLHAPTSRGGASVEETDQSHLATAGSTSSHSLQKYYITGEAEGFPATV

sensor 6 (ERα 312-595) [2] = molecular target: T1, sensor 6 (ERα 312-595); assay: split mVenus complementation, flow cytometry; type: cell-based

O=c1c(-c2ccc(O)cc2)coc2cc(O)ccc12 [daidzein]
split mVenus complementation, flow cytometry (sensor 6 (ERα 312-595) [1]): both of which caused an increase in fluorescence at micromolar concentrations

C[C@]12CC[C@@H]3c4ccc(O)c(O)c4CC[C@H]3[C@@H]1CC[C@@H]2O [4-Hydroxyestradiol]
EC50 (sensor 6 (ERα 312-595) [2]): 58 ± 4.7 nM

Clc1ccc(C(c2ccccc2Cl)C(Cl)(Cl)Cl)cc1 (centres unmarked) [o,p’-DDT]
split mVenus complementation, flow cytometry (sensor 6 (ERα 312-595) [1]): The pesticide o,p’-DDT, and a PCB compound also displayed activation beginning at micromolar levels

C/C=C(/C(=C/C)c1ccc(O)cc1)c1ccc(O)cc1 [Dienestrol]
EC50 (sensor 6 (ERα 312-595) [2]): 4.4 ± 0.87 nM

C[C@]12CC[C@@H]3c4cc(O)c(O)cc4CC[C@H]3[C@@H]1CC[C@@H]2O [2-Hydroxyestradiol]
EC50 (sensor 6 (ERα 312-595) [2]): 550 ± 100 nM
